The values that follow come from patent publication US9975896B2, “Inhibitors of transcription factors and uses thereof” (Dana-Farber Cancer Institute, Inc., priority 2013, dated 2018).

In one assay the target is BRD4 (Homo sapiens, UniProt O60885). In words: In vitro AlphaScreen protein binding assay (competition with biotinylated JQ1). The settings on record: for IC50: AlphaScreen. In general terms: Alpha assays give light when donor and acceptor beads are brought close together.
The next assay deals with T1, BRD2(1) (Homo sapiens, UniProt P25440).
T1 construct: the bromodomain-containing protein is BRD2(1)
T1 sequence (P25440 74-180 limits assumed): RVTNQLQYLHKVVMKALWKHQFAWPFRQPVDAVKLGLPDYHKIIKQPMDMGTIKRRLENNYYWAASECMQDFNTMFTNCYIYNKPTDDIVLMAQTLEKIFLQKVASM
As to the kind of experiment: BromoScan selectivity panel (Kd). The class given is binding.

Another assay concerns the target T2, EP300 (Homo sapiens, UniProt Q09472).
T2 sequence (Q09472 1040-1161 limits assumed): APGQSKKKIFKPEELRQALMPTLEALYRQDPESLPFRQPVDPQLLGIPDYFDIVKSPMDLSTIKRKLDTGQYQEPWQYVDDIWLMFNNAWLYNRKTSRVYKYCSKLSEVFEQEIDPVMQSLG
In words: BromoScan selectivity panel (Kd). The class given is binding.

The next assay addresses BRDT(2) (Homo sapiens, UniProt Q58F21). As to the kind of experiment: BromoScan selectivity panel (Kd). Type of assay: binding.
The next assay deals with T3, ATAD2A (Homo sapiens, UniProt Q6PL18).
T3 sequence (Q6PL18 981-1108 limits assumed): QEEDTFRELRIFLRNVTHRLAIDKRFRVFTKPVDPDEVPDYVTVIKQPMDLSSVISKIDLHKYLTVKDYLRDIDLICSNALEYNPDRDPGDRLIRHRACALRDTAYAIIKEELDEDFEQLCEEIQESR
In words: BromoScan selectivity panel (Kd). Type of assay: binding.

The target in the next assay is T4, BRD1 (Homo sapiens, UniProt O95696).
T4 sequence (O95696 556-688 limits assumed): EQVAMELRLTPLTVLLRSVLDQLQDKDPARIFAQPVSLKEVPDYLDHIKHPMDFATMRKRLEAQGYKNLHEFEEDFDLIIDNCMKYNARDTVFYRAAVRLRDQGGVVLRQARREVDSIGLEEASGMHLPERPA
In words: BromoScan selectivity panel (Kd). The class given is binding.

In the next assay the target is T5, BRD4(2) (Homo sapiens, UniProt O60885).
T5 construct: the bromodomain-containing protein is BRD4(2)
In words: BromoScan selectivity panel (Kd). Type of assay: binding.

In another assay the target is T6, BRD9 (Homo sapiens, UniProt Q9H8M2).
T6 sequence (Q9H8M2 130-250 limits assumed): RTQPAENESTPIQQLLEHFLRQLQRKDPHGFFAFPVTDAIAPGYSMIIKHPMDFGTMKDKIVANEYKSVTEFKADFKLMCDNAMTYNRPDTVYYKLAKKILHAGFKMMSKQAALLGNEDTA
As to the kind of experiment: BromoScan selectivity panel (Kd). Type of assay: binding.

Another assay concerns the target T7, BRPF1 (Homo sapiens, UniProt P55201).
T7 sequence (P55201 626-740 limits assumed): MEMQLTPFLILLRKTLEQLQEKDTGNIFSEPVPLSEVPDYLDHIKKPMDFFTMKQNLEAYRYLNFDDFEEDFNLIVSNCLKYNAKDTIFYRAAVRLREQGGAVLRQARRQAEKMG
In words: BromoScan selectivity panel (Kd). Type of assay: binding.

A further assay concerns the target T8, BRDT(1) (Homo sapiens, UniProt Q58F21).
T8 construct: the bromodomain-containing protein is BRDT(1)
As to the kind of experiment: BromoScan selectivity panel (Kd). Type of assay: binding.

In another assay the target is T9, TRIM33(PHD Bromo.) (Homo sapiens, UniProt Q9UPN9).
T9 construct: TRIM33(PHD, Bromo.); TRIM33(PHD Bromo.); fused on or other part: The vendor panel's detection tag or display handle
T9 sequence (Q9UPN9 1-1127): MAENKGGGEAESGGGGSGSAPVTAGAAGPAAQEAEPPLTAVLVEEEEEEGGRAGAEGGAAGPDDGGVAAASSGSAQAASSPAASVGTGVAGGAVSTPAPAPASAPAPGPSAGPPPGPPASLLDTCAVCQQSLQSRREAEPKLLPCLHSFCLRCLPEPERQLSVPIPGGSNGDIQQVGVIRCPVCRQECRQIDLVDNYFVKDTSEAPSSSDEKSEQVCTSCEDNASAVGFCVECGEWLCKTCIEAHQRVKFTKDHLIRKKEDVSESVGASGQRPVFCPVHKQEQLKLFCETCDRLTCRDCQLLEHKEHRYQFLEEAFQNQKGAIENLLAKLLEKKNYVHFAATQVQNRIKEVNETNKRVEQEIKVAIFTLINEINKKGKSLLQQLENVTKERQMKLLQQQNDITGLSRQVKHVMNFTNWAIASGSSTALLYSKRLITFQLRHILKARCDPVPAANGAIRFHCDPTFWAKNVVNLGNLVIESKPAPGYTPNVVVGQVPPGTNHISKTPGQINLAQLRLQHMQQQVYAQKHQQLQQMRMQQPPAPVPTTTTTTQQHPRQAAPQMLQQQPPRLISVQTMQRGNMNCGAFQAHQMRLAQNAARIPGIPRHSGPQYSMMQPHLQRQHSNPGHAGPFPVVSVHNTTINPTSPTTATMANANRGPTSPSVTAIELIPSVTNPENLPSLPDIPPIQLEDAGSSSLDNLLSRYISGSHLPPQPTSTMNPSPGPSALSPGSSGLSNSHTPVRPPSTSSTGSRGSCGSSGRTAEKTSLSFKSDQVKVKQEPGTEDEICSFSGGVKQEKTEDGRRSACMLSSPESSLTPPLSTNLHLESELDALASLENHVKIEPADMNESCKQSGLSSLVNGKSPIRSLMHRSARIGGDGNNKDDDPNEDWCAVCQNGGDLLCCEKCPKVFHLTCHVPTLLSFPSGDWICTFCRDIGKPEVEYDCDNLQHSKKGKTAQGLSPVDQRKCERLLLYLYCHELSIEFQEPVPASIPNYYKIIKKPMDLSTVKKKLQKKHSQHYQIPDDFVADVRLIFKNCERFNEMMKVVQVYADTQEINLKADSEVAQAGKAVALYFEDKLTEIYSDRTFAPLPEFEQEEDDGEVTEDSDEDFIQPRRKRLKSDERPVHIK
As to the kind of experiment: BromoScan selectivity panel (Kd). Type of assay: binding.

Read-outs that look alike come from different tables or passages of the source. Bounds are passed on as bounds.

What is called IC50 is the concentration that inhibits the measured activity by half. Low values mean higher potency, high ones lower potency. Usually Kd stands for the equilibrium constant for the complex coming apart. Regarding `Cc1noc(C)c1-c1ccc(-c2nc3cnccn3c2NC(C)(C)C)cc1` [UMB32, N-(tert-butyl)-2-(4-(3,5-dimethylisoxazol-4-yl)phenyl)imidazo[1,2-a]pyrazin-3-amine], the IC50 on BRD4 (BRD4 IC50 (μM), Table 3) was 0.26 µM; at BRD4 (IC50 (M), Table 1, in vitro, inhibiting the activity of BRD4) it was 0.256 µM. The “inhibition of the activity of BRD4 in vitro” value on BRD4 (text b614, b618) is on record as “active in inhibiting the activity of BRD4 in vitro”. The Kd at BRD2(1) (Table 8, read-out: Kd (nM) BRD2(1)) is 94 nM; at BRD2(1) (Table 9, read-out: BromoScan Kd, nM BRD2(1)), 94 nM; on EP300 (Table 8, read-out: Kd (nM) EP300), 4500 nM; on EP300 (Table 9, read-out: BromoScan Kd, nM EP300), 4500 nM; at BRDT(2) (Table 8, read-out: Kd (nM) BRDT(2)), 75 nM; on BRDT(2) (Table 9, read-out: BromoScan Kd, nM BRDT(2)), 75 nM. Moreover, the dissociation constant Kd was ≥ 40000 nM at ATAD2A (Table 8, read-out: Kd (nM) ATAD2A); ≥ 40000 nM at ATAD2A (Table 9, read-out: BromoScan Kd, nM ATAD2A); ≥ 40000 nM on BRD1 (Table 8, read-out: Kd (nM) BRD1); ≥ 40000 nM at BRD1 (Table 9, read-out: BromoScan Kd, nM BRD1); 31 nM on BRD4(2) (Table 8, read-out: Kd (nM) BRD4(2)); 31 nM on BRD4(2) (Table 9, read-out: BromoScan Kd, nM BRD4(2)). For the same compound, the Kd at BRD9 (Table 8, read-out: Kd (nM) BRD9) is ≥ 40000 nM; at BRD9 (Table 9, read-out: BromoScan Kd, nM BRD9), ≥ 40000 nM; at BRPF1 (Table 8, read-out: Kd (nM) BRPF1), ≥ 40000 nM; on BRPF1 (Table 9, read-out: BromoScan Kd, nM BRPF1), ≥ 40000 nM; at BRDT(1) (Table 8, read-out: Kd (nM) BRDT(1)), 110 nM; at BRDT(1) (Table 9, read-out: BromoScan Kd, nM BRDT(1)), 110 nM. For the same compound, the equilibrium dissociation constant (Kd) at TRIM33(PHD Bromo.) (Table 8, read-out: Kd (nM) TRIM33(PHD Bromo.)) was ≥ 40000 nM; on TRIM33(PHD Bromo.) (Table 9, read-out: BromoScan Kd, nM TRIM33(PHD, Bromo.)) it was ≥ 40000 nM.
